Experimental findings from US20240033244A1, “COMPOSITIONS AND METHODS FOR INHIBITING YTHDF1” (SHANGHAI INSTITUTE OF MATERIA MEDICA, CHINESE ACADEMY OF …, priority 2020, published 2024) are described below.

One assay addresses T1, YTHDF1 (361-559) (Homo sapiens, UniProt Q9BYJ9).
T1 construct: GST (N, cleaved yes); made in house; host or cells: E. coli BL21 (DE3)
T1 sequence (Q9BYJ9 with tags, fused parts or gaps): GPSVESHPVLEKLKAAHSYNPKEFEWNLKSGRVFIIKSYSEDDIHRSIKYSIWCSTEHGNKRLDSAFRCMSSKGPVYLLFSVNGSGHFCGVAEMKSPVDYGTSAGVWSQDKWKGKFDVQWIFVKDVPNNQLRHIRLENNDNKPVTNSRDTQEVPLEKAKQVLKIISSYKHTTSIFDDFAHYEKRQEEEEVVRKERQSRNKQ
The experiment in a line: Microscale thermophoresis (MST) assay. The class given is binding. Here is the method: Microscale Thermophoresis (MST) assay was performed on MiscroScale Thermophoresis instrument (NanoTemper Technologies) at room temperature using the label-free method. […] And the YTHDF1 (361-559) was diluted to 4 μM with MST buffer. […] Before measuring, the mixture was centrifuged at 13000 rpm for 10 minutes at 4° C. At last, the samples were collected by Monolith NT™ Automated Label Free capillaries (NanoTemper Technologies) and the measurement was started. […] Affinity Analysis Software v2.3 (NanoTemper Technologies).

A further assay addresses T2, His-YTHDF1 (361-559) (Homo sapiens, UniProt Q9BYJ9).
T2 construct: made in house; host or cells: E. coli BL21 (DE3)
T2 sequence (Q9BYJ9 with tags, fused parts or gaps): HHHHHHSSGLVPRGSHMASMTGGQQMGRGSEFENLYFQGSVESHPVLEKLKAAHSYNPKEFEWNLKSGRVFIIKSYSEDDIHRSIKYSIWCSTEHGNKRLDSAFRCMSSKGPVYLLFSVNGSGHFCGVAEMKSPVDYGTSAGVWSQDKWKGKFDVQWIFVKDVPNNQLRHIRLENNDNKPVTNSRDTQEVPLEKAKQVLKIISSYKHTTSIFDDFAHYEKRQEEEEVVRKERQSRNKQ
The experiment in a line: AlphaScreen competition assay against non-biotinylated m6A-containing mRNA. Type of assay: binding. As to the method:
200 nM His-YTHDF1 (361-559) was incubated with non-biotinylated m^6A-containing mRNA at 4° C. for 10 minutes. […] Next, 20 nM biotinylated m^6A-containing mRNA and two kinds of beads were added in subdued light and incubated at 4° C. for 1 hour before detection.
A competitive binding experiment was performed against fixed concentrations of non-biotinylated m^6A-containing mRNA, based on AlphaScreen assay, using 200 nM YTHDF1 and 20 nM biotinylated m^6A-containing mRNA.

For a further assay, the system named is OT-I T cells. The experiment in a line: CFSE-labeled OT-I T cell proliferation in vitro. The class given is cell-based, mouse. The following applies: 5×10^5 CFSE-labeled OT-I T cells, various doses, 1 μg/mL OT-I peptide 24 hours. Here is the method:
1×10^7 lymphocytes form lymph nodes of naïve OT-I mice were washed with PBS twice, then resuspend in 1 mL PBS. 1 μL CFSE Tracker was added into suspension and incubated in 37° C. for 5 min. Then 5 mL RPMI-1640 medium with 10% FBS was added to stop CFSE labelling, incubated at room temperature for 5 min. After centrifugation, CFSE-labeled T cells were suspended with another 5 mL RPMI-1640 medium at least for 10 min in room temperature.
In a further experiment, 5×10^5 CFSE-labeled OT-I T cells were treated with SAA of various doses in 96-well plates, then the cells were stimulated with 1 μg/mL OT-I peptide for 24 hours. Divided T cells were analyzed by FACS.

For assay [1], the system named is tumor infiltrating T cells. The assay is described as follows: Flow cytometry of exhaustion markers on tumor infiltrating T cells. Type of assay: in vivo, mouse. The following applies: 14 days after tumor inoculation. As to the method: For flow cytometry analysis and DCs sorting, tumors, draining lymph nodes were gathered from mice and digested with 100 U/mL collagenase IV and 20 μg/mL DNase I at 37° C. for 40 min. Digestion was stopped by FACS buffer (PBS contains 2% FBS and 1 mM EDTA) and samples were filtered through 70-μm cell strainer. Samples were stained by specific antibodies in FACS buffer on ice for 30 min. Antibody information was described in Table 1 below. All samples were washed with FACS buffer after staining, cells were analyzed on BD Fortessa and sorted by AriaIII.
In addition, terminally exhausted T cells (PD-1 and Tim-3 double positive cells) were assessed 14 days after tumor inoculation with SAA treatment, and it was observed that the frequency of these tumor infiltrating terminally exhausted T cells (PD-1^+Tim-3^+) decreased in SAA treated mice (FIG. 18b), confirming the enhanced anti-tumor activity.

`O=C(/C=C/c1ccc(O)c(O)c1/C=C/c1ccc(O)c(O)c1)O[C@H](Cc1ccc(O)c(O)c1)C(=O)O` [SAA, Salvianolic Acid A] showed a Kd on YTHDF1 (361-559) of 4700 nM. The “inhibitory activity against YTHDF1 with competitor” value at His-YTHDF1 (361-559) (50 nM, 100 nM, 200 nM or 400 nM non-biotinylated m6A-containing mRNA preincubated with YTHDF1) was “remained unchanged”. For the same compound, the IC50 at His-YTHDF1 (361-559) (absence of non-biotinylated m6A-containing mRNA, 200 nM YTHDF1, 20 nM biotinylated mRNA, read-out: inhibitory activity against YTHDF1) is 800 ± 80 nM. Besides, the T cell proliferation result in the assay with OT-I T cells is reported as “could not influence T cell proliferation”. In assay [1], the “CXCR5 expression of PD-1low population” value is given as “much more CXCR5 than DMSO group” and the “frequency of tumor infiltrating terminally exhausted T cells (PD-1+Tim-3+)” value was “decreased”.
